PMC7940574 (Angewandte Chemie (International ed. in English), 2021)

Test system: A549 cells
Assay: Flow cytometry annexin V / propidium iodide in A549 cells
Assay type: cell-based, human
Details: 15 μM gefitinib

COc1cc2ncnc(Nc3ccc(F)c(Cl)c3)c2cc1OCCCN1CCOCC1 [gefitinib]
mode of cytotoxicity (annexin V vs propidium iodide): early apoptosis
